What was measured:
normal BHK-21 cells = assay: MTT assay on normal cells; type: cell-based; details: Mesocricetus auratus, rapidly growing non-cancerous cells
MCF-7 cells = assay: Cell cycle analysis by flow cytometry (PI); type: cell-based; details: 24 h, IC50 and 2 × IC50
Excerpt: The progression of the cell cycle is started by a cascade of intracellular signaling pathways to drive progression from the G0 phase to the G1 phase. The mammalian cell cycle involves an overexpression of D-type cyclins during the progression from the G0/G1 to the S-phase and eventually contributes to the development of cancer. Progression is controlled by D-type cyclins after binding with cyclin-dependent kinases (CDKs) and negatively controlled by binding to CDK inhibitors. CDK4/6 is involved in the G1/S transition of the cell cycle and has an important role in breast cancer. Retinoblastoma tumor suppressor protein (pRb) is deactivated through a CDK4/6-mediated phosphorylation reaction. In fact, cyclin D1/CDK4/6 is a mandatory controller of pRb phosphorylation. This phosphorylation deactivates the pRb that leads to cell proliferation.
PI was used as a fluorescent probe by flow cytometry through small modifications in a published method. The difference in DNA content between the G0/G1, S (synthesis), and G2/M phases can be compared with a control sample. The assay was conducted by seeding 3 × 10^5 cells/well and incubating them for 24 h in a CO2 incubator at 37 °C. […] After harvesting the cells as directed, these cells were centrifuged at 3000 rpm for 5 min and washed with sterile PBS. […] The obtained results were analyzed by using the BD Accuri^TM C6 and GraphPad Prism 5.01 software.

Herring sperm DNA = assay: Fluorescence emission titration with DNA; type: binding; details: compound 10 µM, DMF/H2O (1:9, v/v)
Experimental: The fluorescence emission studies of compound 4d (10 µM) were accomplished in DMF/H2O (1:9, v/v) before and after the continual addition of DNA (0–50 µg/mL) to probe out the compound-DNA interaction. […] As evident in Figure 8, the fluorescence emission of compound 4d was attenuated by ~55% (calculated through I0/I) upon the maximum addition of 50 µg/mL of DNA. The substantial fluorescence quenching behavior of 4d upon the addition of DNA is perhaps attributed to the efficient binding of the compound to the minor groove of DNA [68]. […] Next, the excellent binding efficiency of compound 4d with DNA was well elucidated through the Stern–Volmer (SV) plot, which was produced between the increased fluorescence quenching efficiency and increasing concentration of DNA solution. […]
Reagent grade solvents were used for purification purposes. Silica gel with 70–230 mesh size and pure solvents were used for the column chromatography. ^1H, ^13C, and DEPT-135 NMR spectra were recorded on a 400 MHz spectrometer using DMSO as the solvent and TMS as the internal standard. The chemical shifts, multiplicity, and coupling constants were calculated from data obtained through the FID file. […] The IC50 and percent inhibition were calculated by using GraphPad software. […] The optical density was measured through a microplate reader at 570 nm. […]

Question: Which IC50 (normal BHK-21 cells) does the source give for `N#CC1=C(N)N(Cc2ccccc2)C(N)=C(C#N)C1c1ccc2ccccc2c1` [Compound 4d, 2,6-Diamino-1-benzyl-4-(naphthalen-2-yl)-1,4-dihydropyridine-3,5-dicarbonitrile] here?
Answer: The IC50 was 71.1 ± 3.18 µM.

Question: And the “phase of cell cycle arrest” value (MCF-7 cells)?
Answer: Its value is “G0/G1 phase”.

Question: And the “Stern–Volmer constant (Ksv)” value (Herring sperm DNA; DNA 0–50 µg/mL)?
Answer: Its value is 34100 M⁻¹.

Question: What about the “attenuation of fluorescence emission” value (Herring sperm DNA; 50 µg/mL DNA, emission 410 nm) of the same compound?
Answer: Its value is ~ 55%.
